Test results published in ChEMBL document CHEMBL1201862, “PubChem BioAssay data set” (2004).
Active and inactive are the calls of the source.

Assays:
Galanin receptor type 3 = Galanin receptor type 3 (Homo sapiens, UniProt O60755); assay: Fluorescence-based cell-based primary high throughput dose response assay to identify antagonists of the Galanin Receptor 3 (GalR3).; format: functional
cells = format: functional, cell-based; details: HEK-CNG
[1] = target: T1, Methionyl-tRNA synthetase, putative (Trypanosoma brucei brucei, UniProt Q38C91); format: functional, Trypanosoma brucei brucei strain 927/4 GUTat10.1
T1 sequence (Q38C91 whole entry): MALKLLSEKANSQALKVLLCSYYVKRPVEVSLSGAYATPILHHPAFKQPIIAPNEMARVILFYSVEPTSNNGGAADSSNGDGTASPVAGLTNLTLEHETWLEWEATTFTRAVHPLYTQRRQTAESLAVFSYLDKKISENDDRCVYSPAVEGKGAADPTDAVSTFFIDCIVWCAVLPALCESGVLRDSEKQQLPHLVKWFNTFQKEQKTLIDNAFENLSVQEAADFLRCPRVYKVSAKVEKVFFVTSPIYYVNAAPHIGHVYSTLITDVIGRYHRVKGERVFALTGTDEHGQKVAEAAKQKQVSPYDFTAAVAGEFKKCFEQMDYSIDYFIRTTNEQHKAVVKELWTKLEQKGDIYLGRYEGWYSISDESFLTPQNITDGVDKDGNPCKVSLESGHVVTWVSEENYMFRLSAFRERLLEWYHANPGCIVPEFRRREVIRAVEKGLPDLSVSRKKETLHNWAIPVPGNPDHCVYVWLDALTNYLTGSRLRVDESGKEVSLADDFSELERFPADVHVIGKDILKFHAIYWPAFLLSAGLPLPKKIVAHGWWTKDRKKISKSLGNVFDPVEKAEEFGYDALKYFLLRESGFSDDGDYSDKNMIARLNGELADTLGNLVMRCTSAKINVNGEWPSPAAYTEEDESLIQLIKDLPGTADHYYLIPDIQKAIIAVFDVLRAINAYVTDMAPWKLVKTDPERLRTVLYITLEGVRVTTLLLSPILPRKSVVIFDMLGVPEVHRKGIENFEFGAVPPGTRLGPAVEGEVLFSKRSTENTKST

[2] = Counterscreen for inhibitors of Trypanosoma brucei methionyl tRNA synthetase (MetRS): Luminescence-based cell-based high throughput dose response assay to identify compounds that are cytotoxic to Jurkat human T lymphocyte cells.; format: functional
[3] = target: T1, Methionyl-tRNA synthetase, putative; format: functional, Trypanosoma brucei brucei strain 927/4 GUTat10.1; remark: listed apart in the source
[4] = target: Fructose-bisphosphate aldolase (Mycobacterium tuberculosis, UniProt P9WQA3); assay: Fluorescence-based biochemical high throughput dose response assay for inhibitors of the fructose-bisphosphate aldolase (FBA) of M. tuberculosis.; format: functional
Cytochrome P450 2C9 = Cytochrome P450 2C9 (Homo sapiens, UniProt P11712)
HEK293 [5] = assay: cells; details: Homo sapiens
Cytochrome P450 3A4 = Cytochrome P450 3A4 (Homo sapiens, UniProt P08684);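 also: CYP3A4 tested as one member of a cytochrome P450 panel screen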
HEK293 [6] = assay: cells; details: Homo sapiens; remark: listed apart in the source
Cytochrome P450 2D6 = Cytochrome P450 2D6 (Homo sapiens, UniProt P10635);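 also: CYP2D6 member of a cytochrome P450 panel assay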
Sequence of Cytochrome P450 2D6 (P10635 whole entry): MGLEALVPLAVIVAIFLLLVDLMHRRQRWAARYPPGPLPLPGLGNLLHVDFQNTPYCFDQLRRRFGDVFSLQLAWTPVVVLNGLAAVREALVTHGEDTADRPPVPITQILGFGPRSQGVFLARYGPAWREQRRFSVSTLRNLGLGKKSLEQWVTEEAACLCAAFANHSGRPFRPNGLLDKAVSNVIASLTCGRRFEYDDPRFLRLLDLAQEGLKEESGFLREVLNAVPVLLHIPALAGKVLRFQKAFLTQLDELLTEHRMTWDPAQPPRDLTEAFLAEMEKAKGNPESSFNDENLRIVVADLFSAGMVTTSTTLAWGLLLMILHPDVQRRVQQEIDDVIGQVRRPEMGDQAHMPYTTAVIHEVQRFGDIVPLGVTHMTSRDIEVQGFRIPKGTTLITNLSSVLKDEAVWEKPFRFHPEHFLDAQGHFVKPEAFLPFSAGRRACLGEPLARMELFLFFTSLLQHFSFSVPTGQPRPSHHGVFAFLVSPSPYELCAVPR

Sequence of Galanin receptor type 3 (O60755 whole entry): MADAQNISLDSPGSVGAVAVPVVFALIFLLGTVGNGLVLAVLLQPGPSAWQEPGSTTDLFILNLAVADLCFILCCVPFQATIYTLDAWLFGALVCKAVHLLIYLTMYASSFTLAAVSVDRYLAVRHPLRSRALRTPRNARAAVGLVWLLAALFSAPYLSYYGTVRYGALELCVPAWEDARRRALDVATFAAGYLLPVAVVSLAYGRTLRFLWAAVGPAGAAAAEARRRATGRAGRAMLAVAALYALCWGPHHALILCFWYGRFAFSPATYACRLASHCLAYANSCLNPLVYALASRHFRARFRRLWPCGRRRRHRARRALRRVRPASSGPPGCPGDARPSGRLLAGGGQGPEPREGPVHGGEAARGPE
Sequence of Cytochrome P450 2C9 (P11712 whole entry): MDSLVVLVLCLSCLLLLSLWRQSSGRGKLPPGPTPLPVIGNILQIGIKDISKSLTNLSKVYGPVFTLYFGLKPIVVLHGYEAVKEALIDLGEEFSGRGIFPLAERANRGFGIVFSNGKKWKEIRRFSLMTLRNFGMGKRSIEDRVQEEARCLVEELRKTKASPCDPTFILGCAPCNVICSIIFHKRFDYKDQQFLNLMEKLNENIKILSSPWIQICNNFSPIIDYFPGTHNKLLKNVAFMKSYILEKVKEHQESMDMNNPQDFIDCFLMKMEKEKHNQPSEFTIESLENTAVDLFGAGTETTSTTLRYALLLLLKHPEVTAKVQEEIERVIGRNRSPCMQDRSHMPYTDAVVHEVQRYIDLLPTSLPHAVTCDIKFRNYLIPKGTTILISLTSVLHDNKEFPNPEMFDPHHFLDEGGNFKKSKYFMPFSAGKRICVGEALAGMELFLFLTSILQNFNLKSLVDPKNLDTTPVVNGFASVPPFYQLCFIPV
Sequence of Cytochrome P450 3A4 (P08684 whole entry): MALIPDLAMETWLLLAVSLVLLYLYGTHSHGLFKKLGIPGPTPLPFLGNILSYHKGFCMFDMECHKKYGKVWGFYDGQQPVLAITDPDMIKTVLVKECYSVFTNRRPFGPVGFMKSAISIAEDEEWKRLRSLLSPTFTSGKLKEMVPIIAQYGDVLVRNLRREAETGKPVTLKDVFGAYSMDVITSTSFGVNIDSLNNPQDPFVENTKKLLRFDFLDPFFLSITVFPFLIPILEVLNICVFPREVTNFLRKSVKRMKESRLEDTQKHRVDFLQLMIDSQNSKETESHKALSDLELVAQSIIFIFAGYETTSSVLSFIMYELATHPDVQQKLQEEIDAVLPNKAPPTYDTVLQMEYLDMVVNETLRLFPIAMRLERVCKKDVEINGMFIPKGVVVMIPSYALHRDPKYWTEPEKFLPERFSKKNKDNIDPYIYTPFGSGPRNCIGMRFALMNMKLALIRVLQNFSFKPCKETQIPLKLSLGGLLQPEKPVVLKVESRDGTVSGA
Sequence of Fructose-bisphosphate aldolase (P9WQA3 whole entry): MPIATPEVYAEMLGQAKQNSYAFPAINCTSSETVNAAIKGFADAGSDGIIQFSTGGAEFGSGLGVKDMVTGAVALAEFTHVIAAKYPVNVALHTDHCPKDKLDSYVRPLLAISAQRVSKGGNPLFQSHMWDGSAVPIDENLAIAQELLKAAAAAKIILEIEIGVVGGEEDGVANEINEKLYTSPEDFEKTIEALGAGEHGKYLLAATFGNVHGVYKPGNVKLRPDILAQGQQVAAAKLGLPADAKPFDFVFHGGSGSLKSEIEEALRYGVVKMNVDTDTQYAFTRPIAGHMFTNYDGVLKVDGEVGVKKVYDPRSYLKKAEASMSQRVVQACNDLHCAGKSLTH

SMILES	IC50 (Galanin receptor type 3)	EC50 (cells)	IC50 [1]	IC50 [2]	IC50 [3]	further results
CN(Cc1ccc2c(c1)CCCN2C)C(=O)[C@H]1O[C@@H](n2cnc3c(N)ncnc32)[C@H](O)[C@@H]1O	3.97 µM (active)	> 29.9 µM (inactive)				
O=C(NCCc1ccc(Cl)cc1)Nc1ccc(Cl)cc1			2.58 µM (active)	83.3 µM (inactive)	119 µM (inactive)	
CCc1cc(=O)oc2cc(C)cc(OC(C)C(=O)NC3CCN(Cc4ccccc4)CC3)c12 (stereo unspecified)						IC50 [4]: 1.52 µM (active)
CS(=O)(=O)c1ccc(Cl)c(NC(=O)c2ccc(-n3cncn3)c([N+](=O)[O-])c2)c1			2.13 µM (active)	83.3 µM (inactive)	7.04 µM (active)	
N#CCSc1nc(N)c(C#N)c(C2CCCCC2)c1C#N	2.17 µM (active)	> 29.9 µM (inactive)				AC50 (Cytochrome P450 2C9): 12.6 µM (inconclusive); EC50 (HEK293 [5]): > 59.6 µM (inactive); AC50 (Cytochrome P450 3A4): 3.16 µM (inconclusive); EC50 (HEK293 [6]): > 59.6 µM (inactive); AC50 (Cytochrome P450 2D6): 39.8 µM (inconclusive)
